# Experimental data as given in article PMC8745178, “Methyl 2-Halo-4-Substituted-5-Sulfamoyl-Benzoates as High Affinity and Selective Inhibitors of Carbonic Anhydrase IX” (International Journal of Molecular Sciences, 2021).
# Key:
# CAI = CAI (Homo sapiens, UniProt P00915); experiment: fluorescent thermal shift assay (FTSA), CAI; assay type: binding; conditions: 37 °C; for ΔGintr CAI: converted from Kd_intr, independent of pH; for ΔGobs CAI: converted from Kd_obs, pH 7.0, FTSA
# [1] = determination of pKa of the sulfonamide group by UV-VIS spectra at various pH; assay type: physicochemical; conditions: for f RSO2NH-, fraction of deprotonated sulfonamide: at pH 7.0, calculated from pKa; for pKa: calculated from spectra at various pH, 37 °C
# CAXIV = CAXIV (Homo sapiens, UniProt Q9ULX7); experiment: fluorescent thermal shift assay (FTSA), CAXIV; assay type: binding; conditions: 37 °C; for ΔGintr CAXIV: converted from Kd_intr, independent of pH; for ΔGobs CAXIV: converted from Kd_obs, pH 7.0, FTSA
# Chain of CAXIV (Q9ULX7 16-337): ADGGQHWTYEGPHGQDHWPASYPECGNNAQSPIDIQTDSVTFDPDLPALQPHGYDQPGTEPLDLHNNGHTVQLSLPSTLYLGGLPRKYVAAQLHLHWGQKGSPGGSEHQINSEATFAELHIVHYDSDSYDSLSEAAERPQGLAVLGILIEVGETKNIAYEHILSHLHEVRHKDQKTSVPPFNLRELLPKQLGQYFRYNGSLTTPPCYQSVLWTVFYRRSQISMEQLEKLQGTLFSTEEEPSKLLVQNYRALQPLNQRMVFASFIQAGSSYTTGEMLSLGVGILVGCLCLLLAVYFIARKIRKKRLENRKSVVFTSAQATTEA
# CAII = CAII (Homo sapiens, UniProt P00918); experiment: fluorescent thermal shift assay (FTSA), CAII; assay type: binding; conditions: 37 °C; for ΔGintr CAII: converted from Kd_intr, independent of pH; for ΔGobs CAII: converted from Kd_obs, pH 7.0, FTSA
# CAIII = CAIII (Homo sapiens, UniProt P07451); experiment: fluorescent thermal shift assay (FTSA), CAIII; assay type: binding; conditions: 37 °C; for ΔGintr CAIII: converted from Kd_intr, independent of pH; for ΔGobs CAIII: converted from Kd_obs, pH 7.0, FTSA
# Chain of CAIII (P07451 whole entry): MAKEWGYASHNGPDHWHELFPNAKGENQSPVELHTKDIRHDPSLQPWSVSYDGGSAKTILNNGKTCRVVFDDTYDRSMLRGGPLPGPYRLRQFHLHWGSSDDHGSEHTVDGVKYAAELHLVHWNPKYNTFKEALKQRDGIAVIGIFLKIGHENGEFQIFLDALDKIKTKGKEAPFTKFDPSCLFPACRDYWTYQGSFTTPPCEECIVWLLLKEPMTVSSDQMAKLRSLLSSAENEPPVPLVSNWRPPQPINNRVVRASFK
# CAXII = CAXII (Homo sapiens, UniProt O43570); experiment: fluorescent thermal shift assay (FTSA), CAXII; assay type: binding; conditions: 37 °C; for ΔGintr CAXII: converted from Kd_intr, independent of pH; for ΔGobs CAXII: converted from Kd_obs, pH 7.0, FTSA
# Chain of CAXII (O43570 25-354): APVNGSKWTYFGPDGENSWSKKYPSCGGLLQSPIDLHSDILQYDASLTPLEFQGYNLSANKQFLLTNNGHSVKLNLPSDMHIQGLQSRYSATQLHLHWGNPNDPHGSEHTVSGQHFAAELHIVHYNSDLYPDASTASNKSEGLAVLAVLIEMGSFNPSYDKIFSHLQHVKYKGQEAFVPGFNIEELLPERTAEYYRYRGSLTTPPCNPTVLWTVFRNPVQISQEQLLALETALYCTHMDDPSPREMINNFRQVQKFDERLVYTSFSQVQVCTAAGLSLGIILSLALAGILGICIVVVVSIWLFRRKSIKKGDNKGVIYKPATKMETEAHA
# CAVII = CAVII (Homo sapiens, UniProt P43166); experiment: fluorescent thermal shift assay (FTSA), CAVII; assay type: binding; conditions: 37 °C; for ΔGintr CAVII: converted from Kd_intr, independent of pH; for ΔGobs CAVII: converted from Kd_obs, pH 7.0, FTSA
# Chain of CAVII (P43166 whole entry): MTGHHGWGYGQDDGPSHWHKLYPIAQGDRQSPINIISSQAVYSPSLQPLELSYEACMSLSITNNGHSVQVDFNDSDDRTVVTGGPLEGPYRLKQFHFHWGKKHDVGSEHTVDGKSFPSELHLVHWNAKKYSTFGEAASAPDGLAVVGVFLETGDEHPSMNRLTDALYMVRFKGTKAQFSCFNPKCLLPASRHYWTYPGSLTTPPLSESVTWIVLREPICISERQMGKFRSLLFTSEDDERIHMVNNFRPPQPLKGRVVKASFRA
# [2] = solubility observed visually and in absorption spectra; assay type: physicochemical; set-up: key: low solubility, LS
# CAVI = CAVI (Homo sapiens, UniProt P23280); experiment: fluorescent thermal shift assay (FTSA), CAVI; assay type: binding; conditions: 37 °C; for ΔGobs CAVI: converted from Kd_obs, pH 7.0, FTSA; for ΔGintr CAVI: converted from Kd_intr, independent of pH
# Chain of CAVI (P23280 18-308): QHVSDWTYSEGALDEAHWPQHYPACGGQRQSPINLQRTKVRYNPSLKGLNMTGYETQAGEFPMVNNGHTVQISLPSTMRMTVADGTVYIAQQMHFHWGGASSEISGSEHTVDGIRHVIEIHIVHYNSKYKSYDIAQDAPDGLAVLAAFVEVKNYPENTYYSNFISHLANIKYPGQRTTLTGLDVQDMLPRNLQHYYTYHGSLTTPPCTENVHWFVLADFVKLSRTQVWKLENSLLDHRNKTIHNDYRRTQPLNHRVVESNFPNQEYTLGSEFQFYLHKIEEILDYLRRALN
# CAXIII = CAXIII (Homo sapiens, UniProt Q8N1Q1); experiment: fluorescent thermal shift assay (FTSA), CAXIII; assay type: binding; conditions: 37 °C; for ΔGintr CAXIII: converted from Kd_intr, independent of pH; for ΔGobs CAXIII: converted from Kd_obs, pH 7.0, FTSA
# Chain of CAXIII (Q8N1Q1 whole entry): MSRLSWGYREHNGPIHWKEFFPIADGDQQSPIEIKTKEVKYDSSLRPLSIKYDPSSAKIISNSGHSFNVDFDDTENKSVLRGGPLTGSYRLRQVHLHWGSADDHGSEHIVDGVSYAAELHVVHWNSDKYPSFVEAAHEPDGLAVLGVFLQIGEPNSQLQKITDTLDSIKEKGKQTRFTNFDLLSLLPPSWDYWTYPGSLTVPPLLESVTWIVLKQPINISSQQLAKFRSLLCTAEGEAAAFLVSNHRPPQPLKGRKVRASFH
# CAVB = CAVB (Homo sapiens, UniProt Q9Y2D0); experiment: fluorescent thermal shift assay (FTSA), CAVB; assay type: binding; conditions: 37 °C; for ΔGintr CAVB: converted from Kd_intr, independent of pH; for ΔGobs CAVB: converted from Kd_obs, pH 7.0, FTSA
# Chain of CAVB (Q9Y2D0 34-317): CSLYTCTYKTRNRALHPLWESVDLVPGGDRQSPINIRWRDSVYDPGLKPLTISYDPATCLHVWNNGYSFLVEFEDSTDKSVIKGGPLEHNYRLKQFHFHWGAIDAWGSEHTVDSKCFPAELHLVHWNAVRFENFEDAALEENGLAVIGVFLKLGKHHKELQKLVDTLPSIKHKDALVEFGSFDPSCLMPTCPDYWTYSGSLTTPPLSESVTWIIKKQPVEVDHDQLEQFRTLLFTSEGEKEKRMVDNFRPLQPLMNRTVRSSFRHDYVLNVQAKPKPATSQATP
# CAIX = CAIX (Homo sapiens, UniProt Q16790); experiment: fluorescent thermal shift assay (FTSA), CAIX; assay type: binding; conditions: for ΔGobs CAIX: pH 7
# CAIV = CAIV (Homo sapiens, UniProt P22748); experiment: fluorescent thermal shift assay (FTSA), CAIV; assay type: binding; conditions: 37 °C; for ΔGintr CAIV: converted from Kd_intr, independent of pH; for ΔGobs CAIV: converted from Kd_obs, pH 7.0, FTSA
# Chain of CAIV (P22748 19-312): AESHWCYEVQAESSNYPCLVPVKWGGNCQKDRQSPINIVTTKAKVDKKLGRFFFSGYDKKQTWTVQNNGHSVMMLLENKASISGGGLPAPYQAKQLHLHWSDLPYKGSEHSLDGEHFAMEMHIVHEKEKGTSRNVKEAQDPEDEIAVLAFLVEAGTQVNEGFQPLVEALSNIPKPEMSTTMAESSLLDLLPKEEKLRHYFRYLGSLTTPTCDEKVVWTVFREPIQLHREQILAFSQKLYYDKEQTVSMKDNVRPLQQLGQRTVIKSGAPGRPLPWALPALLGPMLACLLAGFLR
# CAVA = CAVA (Homo sapiens, UniProt P35218); experiment: fluorescent thermal shift assay (FTSA), CAVA; assay type: binding; conditions: 37 °C; for ΔGintr CAVA: converted from Kd_intr, independent of pH; for ΔGobs CAVA: converted from Kd_obs, pH 7.0, FTSA
# Chain of CAVA (P35218 39-305): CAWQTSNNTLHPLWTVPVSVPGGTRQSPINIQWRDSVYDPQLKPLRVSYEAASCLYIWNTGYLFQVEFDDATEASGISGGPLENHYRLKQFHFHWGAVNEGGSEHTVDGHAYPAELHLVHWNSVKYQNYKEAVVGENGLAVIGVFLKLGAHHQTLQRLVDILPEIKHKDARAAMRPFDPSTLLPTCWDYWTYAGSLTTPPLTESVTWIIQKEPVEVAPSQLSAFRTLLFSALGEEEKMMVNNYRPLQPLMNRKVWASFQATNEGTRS
# Chain of CAI (P00915 whole entry): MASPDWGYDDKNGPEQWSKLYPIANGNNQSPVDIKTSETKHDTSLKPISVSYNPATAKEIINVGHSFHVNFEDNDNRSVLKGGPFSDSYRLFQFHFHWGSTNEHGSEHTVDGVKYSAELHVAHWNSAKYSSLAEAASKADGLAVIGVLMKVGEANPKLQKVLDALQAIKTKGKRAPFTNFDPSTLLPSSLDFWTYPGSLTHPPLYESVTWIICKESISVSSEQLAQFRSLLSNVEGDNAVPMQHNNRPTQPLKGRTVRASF
Compound,ΔGintr CAI (CAI) [kcal/mol],ΔGobs CAI (CAI) [kcal/mol],"f RSO2NH-, fraction of deprotonated sulfonamide [1] [%]",ΔGintr CAXIV (CAXIV) [kcal/mol],ΔGobs CAXIV (CAXIV) [kcal/mol],ΔGintr CAII (CAII) [kcal/mol],ΔGobs CAII (CAII) [kcal/mol],ΔGintr CAIII (CAIII) [kcal/mol],ΔGobs CAIII (CAIII) [kcal/mol],ΔGintr CAXII (CAXII) [kcal/mol],ΔGobs CAXII (CAXII) [kcal/mol],ΔGintr CAVII (CAVII) [kcal/mol],ΔGobs CAVII (CAVII) [kcal/mol],ΔGobs CAVI (CAVI) [kcal/mol],ΔGintr CAXIII (CAXIII) [kcal/mol],ΔGobs CAXIII (CAXIII) [kcal/mol],ΔGintr CAVB (CAVB) [kcal/mol],ΔGobs CAVB (CAVB) [kcal/mol],ΔGintr CAIX (CAIX),ΔGobs CAIX (CAIX) [kcal/mol],further results
"COC(=O)c1cc(S(N)(=O)=O)c(Cl)cc1SCc1ccccc1 [Compound 5c, Methyl 2-benzylsulfanyl-4-chloro-5-sulfamoylbenzoate]",-11.5,-8.08,0.4,-14.4,-10.4,-14.5,-10.6,≥ -9.54,≥ -5.26,-13.1,-9.08,-13.8,-9.8,-9.3,-13.4,-9.94,-12.8,-8.99,-15.3 kcal/mol,-11.1,solubility [2]: LS
"COC(=O)c1cc(S(N)(=O)=O)c(Cl)cc1Sc1cccc2ccccc12 [Compound 5f, Methyl 4-chloro-2-(1-naphthylsulfanyl)-5-sulfamoyl-benzoate]",-9.94,-6.5,0.4,-9.94,-5.95,-13.8,-9.87,≥ -9.54,≥ -5.26,–,–,–,-8.46,-6.88,-13.7,-10.3,-12.8,-8.91,-15.1 kcal/mol,-10.9,ΔGintr CAIV (CAIV): -10.1 kcal/mol; ΔGobs CAIV (CAIV): -5.93 kcal/mol; solubility [2]: LS; ΔGintr CAVI (CAVI): -11.8 kcal/mol; ΔGintr CAVA (CAVA): -9.37 kcal/mol; ΔGobs CAVA (CAVA): -5.71 kcal/mol
"COC(=O)c1cc(S(N)(=O)=O)c(Cl)cc1Cl [Compound 1, Methyl 2,4-dichloro-5-sulfamoyl-benzoate]",-9.63,-6.88,1.2,-13.4,-10.1,-13.3,-10.1,-9.68,-6.09,-12.2,-8.87,-13.5,-10.2,-9.61,–,-10,-12.4,-9.23,-13.7 kcal/mol,-10.3,pKa [1]: 8.9; ΔGintr CAIV (CAIV): -13 kcal/mol; ΔGobs CAIV (CAIV): -9.56 kcal/mol; ΔGintr CAVI (CAVI): -13.8 kcal/mol; ΔGintr CAVA (CAVA): -10.3 kcal/mol; ΔGobs CAVA (CAVA): -7.34 kcal/mol
"COC(=O)c1cc(S(N)(=O)=O)c(S(=O)(=O)C2CCCCC2)cc1Br [Compound 8b, Methyl 2-bromo-4-cyclohexylsulfonyl-5-sulfamoylbenzoate]",≥ -9.42,≥ -5.26,0.1,≥ -9.94,≥ -5.26,≥ -9.87,≥ -5.26,≥ -10.3,≥ -5.26,≥ -9.94,≥ -5.26,≥ -9.94,≥ -5.26,≥ -5.26,-10.1,-5.88,≥ -9.8,≥ -5.26,-51.2,-7.34,pKa [1]: 9.9; ΔGintr CAIV (CAIV): -11 kcal/mol; ΔGobs CAIV (CAIV): -6.17 kcal/mol; ΔGintr CAVI (CAVI): ≥ -10.9 kcal/mol; ΔGintr CAVA (CAVA): ≥ -9.61 kcal/mol; ΔGobs CAVA (CAVA): ≥ -5.26 kcal/mol
